Converted amounts (≈) assume the structure as drawn.
What was measured:
Assay type in all cases: cell-based
Settings in all cases: agar dilution test/isosensitest agar, unit assumed
Klebsiella 57 USA = assay: MIC agar dilution test, Klebsiella 57 USA
Source text: (§1) It has already been disclosed in J. Med. Chem. 23, 1358 (1980) that 1-ethyl-6-fluoro-1,4-dihydro-4-oxo-7-(1-piperazinyl)-3-quinolinecarboxylicacid (norfloxacin) has antibacterial properties.
(§2) MIC values (agar dilution test/isosensitest agar)

Serratia 16040 = assay: MIC agar dilution test, Serratia 16040
Source text: as §1, §2

Klebsiella 6179 = assay: MIC agar dilution test, Klebsiella 6179
Source text: as §1, §2

E. coli Neumann = assay: MIC agar dilution test, E. coli Neumann
Source text: as §1, §2

Providencia 12052 = assay: MIC agar dilution test, Providencia 12052
Source text: as §1, §2

Klebsiella 8085 = assay: MIC agar dilution test, Klebsiella 8085
Source text: as §1, §2

Staphylococcus 133 = assay: MIC agar dilution test, Staphylococcus 133
Source text: as §1, §2

Staphylococcus FK 422 = assay: MIC agar dilution test, Staphylococcus FK 422
Source text: as §1, §2

Staphylococcus 1756 = assay: MIC agar dilution test, Staphylococcus 1756
Source text: as §1, §2

Row | SMILES | MIC values (Klebsiella 57 USA) [µg/mL] | MIC values (Serratia 16040) [µg/mL] | MIC values (Klebsiella 6179) [µg/mL] | MIC values (E. coli Neumann) [µg/mL] | MIC values (Providencia 12052) [µg/mL] | MIC values (Klebsiella 8085) [µg/mL] | MIC values (Staphylococcus 133) [µg/mL] | MIC values (Staphylococcus FK 422) [µg/mL] | MIC values (Staphylococcus 1756) [µg/mL]
1 | O=C(O)c1cn(C2CC2)c2cc(N3CCNC(c4ccccc4)C3)c(F)cc2c1=O (stereo not drawn) [Example 1, 1-cyclopropyl-6-fluoro-1,4-dihydro-4-oxo-7-(3-phenyl-1-piperazinyl)-3-quinolinecarboxylic acid] | 0.06 (≈ 0.147 µM) | 8 (≈ 19.6 µM) | 0.015 (≈ 0.0368 µM) | 0.015 (≈ 0.0368 µM) | 4 (≈ 9.82 µM) | 0.015 (≈ 0.0368 µM) | 0.015 (≈ 0.0368 µM) | 0.015 (≈ 0.0368 µM) | 0.015 (≈ 0.0368 µM)
2 | O=C(O)c1cn(C2CC2)c2cc(N3CCNC(c4ccc(F)cc4)C3)c(F)cc2c1=O (stereo not drawn) [Example 2] | 0.25 (≈ 0.588 µM) | 16 (≈ 37.6 µM) | 0.06 (≈ 0.141 µM) | 0.015 (≈ 0.0353 µM) | 8 (≈ 18.8 µM) | 0.015 (≈ 0.0353 µM) | 0.06 (≈ 0.141 µM) | 0.03 (≈ 0.0705 µM) | 0.03 (≈ 0.0705 µM)
3 | O=C(O)c1cn(C2CC2)c2cc(N3CCNC(c4ccc(Cl)cc4)C3)c(F)cc2c1=O (stereo not drawn) [Example 3] | 0.5 (≈ 1.13 µM) | 16 (≈ 36.2 µM) | 0.125 (≈ 0.283 µM) | 0.03 (≈ 0.0679 µM) | 8 (≈ 18.1 µM) | 0.03 (≈ 0.0679 µM) | 0.06 (≈ 0.136 µM) | 0.06 (≈ 0.136 µM) | 0.06 (≈ 0.136 µM)
4 | COc1ccc(C2CN(c3cc4c(cc3F)c(=O)c(C(=O)O)cn4C3CC3)CCN2)cc1 (stereo not drawn) [Example 5] | 0.5 (≈ 1.14 µM) | 16 (≈ 36.6 µM) | 0.125 (≈ 0.286 µM) | 0.03 (≈ 0.0686 µM) | 8 (≈ 18.3 µM) | 0.03 (≈ 0.0686 µM) | 0.06 (≈ 0.137 µM) | 0.06 (≈ 0.137 µM) | 0.03 (≈ 0.0686 µM)
5 | O=C(O)c1cn(C2CC2)c2cc(N3CCNC(c4ccc(N5CCCCC5)cc4)C3)c(F)cc2c1=O (stereo not drawn) [Example 8] | – | – | – | – | – | – | 0.03 (≈ 0.0612 µM) | 0.015 (≈ 0.0306 µM) | 0.015 (≈ 0.0306 µM)
6 | O=C(O)c1cn(C2CC2)c2cc(N3CCNC(c4cccc([N+](=O)[O-])c4)C3)c(F)cc2c1=O (stereo not drawn) [Example 11] | – | – | – | – | – | – | 0.06 (≈ 0.133 µM) | 0.125 (≈ 0.276 µM) | 0.06 (≈ 0.133 µM)
7 | O=C(O)c1cn(C2CC2)c2cc(N3CCNC(c4cccs4)C3)c(F)cc2c1=O (stereo not drawn) [Example 12] | 0.5 (≈ 1.21 µM) | 16 (≈ 38.7 µM) | 0.125 (≈ 0.302 µM) | 0.015 (≈ 0.0363 µM) | 8 (≈ 19.3 µM) | 0.015 (≈ 0.0363 µM) | 0.03 (≈ 0.0726 µM) | 0.06 (≈ 0.145 µM) | 0.03 (≈ 0.0726 µM)
8 | Br.O=C(O)c1cn(C2CC2)c2cc(N3CCNC(c4ccc(O)cc4)C3)c(F)cc2c1=O (stereo not drawn) [Example 14, 1-cyclopropyl-6-fluoro-1,4-dihydro-7-[3-(4-hydroxyphenyl)-1-piperazinyl]-4-oxo-3-quinolinecarboxylic acid hydrobromide] | 0.125 | 8 | 0.25 | 0.015 | 32 | 0.03 | 0.125 | 0.125 | 0.5
9 | O=C(O)c1cn(C2CC2)c2c(F)c(N3CCNC(c4ccccc4)C3)c(F)cc2c1=O (stereo not drawn) [Example 16, 1-cyclopropyl-6,8-difluoro-1,4-dihydro-4-oxo-7-(3-phenyl-1-piperazinyl)-3-quinolinecarboxylic acid] | 0.125 (≈ 0.294 µM) | 2 (≈ 4.7 µM) | 0.015 (≈ 0.0353 µM) | 0.015 (≈ 0.0353 µM) | 4 (≈ 9.4 µM) | 0.015 (≈ 0.0353 µM) | 0.015 (≈ 0.0353 µM) | 0.015 (≈ 0.0353 µM) | 0.015 (≈ 0.0353 µM)
10 | CCn1cc(C(=O)O)c(=O)c2cc(F)c(N3CCNCC3)cc21 [Norfloxacin, 1-ethyl-6-fluoro-1,4-dihydro-4-oxo-7-(1-piperazinyl)-3-quinolinecarboxylicacid, reference compound] | 1 (≈ 3.13 µM) | 32 (≈ 100 µM) | 1 (≈ 3.13 µM) | 0.125 (≈ 0.391 µM) | 128 (≈ 401 µM) | 0.25 (≈ 0.783 µM) | 1 (≈ 3.13 µM) | 2 (≈ 6.26 µM) | 1 (≈ 3.13 µM)

From patent US4599334A, “7-(3-aryl-1-piperazinyl)- and 7-(3-cyclohexyl-1-piperazinyl)-3-quinolonecarboxylic acid antibacterials” (Bayer Aktiengesellschaft, priority 1984, dated 1986)
